Experimental data taken from US4316958A, “Process for producing optically active cephalosporin analogs” (Kyowa Hakko Kogyo Co., Ltd., priority 1979, dated 1982).
In brackets after ≈: the same amount, converted by molar mass. Read-outs that look alike come from different tables or passages of the source.

Experiments:
Type in all cases: cell-based
[1] = test system: Pseudomonas aeruginosa #1; assay: Heart Infusion Agar Dilution Method, antimicrobial activity (MIC)
Excerpt: (§1) Antimicrobial activities of the compounds obtained in Reference Examples 1 and 2 are as follows. Heart Infusion Agar Dilution Method (pH 7.2) is used. A cephalosporin compound having the same acyl side chain corresponding to the dl-compound is used as a control. The compounds are identified as follows.

Proteus mirabilis 1287 = assay: as above; settings: Proteus mirabilis, 1287, pH 7.2, Proteus mirabilis 1287
Excerpt: as §1

Escherichia coli NIHJC-2 = assay: as above
Excerpt: as §1

Serratia marcescens T-26 = assay: as above
Excerpt: as §1

[2] = test system: Klebsiella pneumoniae Y-60; assay: as above
Excerpt: as §1

[3] = test system: Klebsiella pneumoniae 8045; assay: as above; settings: Klebsiella pneumoniae, 8045, pH 7.2, Klebsiella pneumoniae 8045
Excerpt: as §1

Proteus vulgaris 6897 = assay: as above; settings: Proteus vulgaris, 6897, pH 7.2, Proteus vulgaris 6897
Excerpt: as §1

Escherichia coli Juhl = assay: as above
Excerpt: as §1

Serratia marcescens T-55 = assay: as above
Excerpt: as §1

[4] = test system: Staphylococcus aureus 209-P; assay: as above
Excerpt: as §1

[5] = test system: Escherichia coli GN2411-5; assay: as above
Excerpt: as §1

Proteus rettgeri KY 4289 = assay: as above; settings: Providencia rettgeri, KY4289, pH 7.2
Excerpt: as §1

Proteus morganii KY 4298 = assay: as above
Excerpt: as §1

[6] = test system: Staphylococcus aureus Smith; assay: as above
Excerpt: (§2) Heart Infusion Agar Dilution Method (pH 7.2) is used. A cephalosporin compound having the same acyl side chain corresponding to the dl-compound is used as a control. The compounds are identified as follows.

[7] = antimicrobial activity (stated in words)
Excerpt: as §1

[8] = test system: Pseudomonas aeruginosa 145; assay: Heart Infusion Agar Dilution Method, antimicrobial activity (MIC); settings: Pseudomonas aeruginosa, 145, pH 7.2, Pseudomonas aeruginosa 145
Excerpt: as §1

Pseudomonas putida 264 = assay: as above
Excerpt: as §1

[9] = test system: Staphylococcus epidermidis; assay: as above; settings: pH 7.2
Excerpt: as §2

[10] = Serratia marcescens T-55, pH 7.2
[11] = Staphylococcus aureus 209-P, pH 7.2
[12] = Morganella morganii, KY4298, pH 7.2, Proteus morganii KY 4298, read-out: MIC
[13] = Pseudomonas aeruginosa, pH 7.2, Pseudomonas aeruginosa #1, read-out: MIC
[14] = Escherichia coli, NIHJC2, pH 7.2, Escherichia coli NIHJC-2, read-out: MIC
[15] = Serratia marcescens, T26, pH 7.2, Serratia marcescens T-26, read-out: MIC
[16] = Klebsiella pneumoniae, Y60, pH 7.2, Klebsiella pneumoniae Y-60, read-out: MIC
[17] = Escherichia coli, pH 7.2, Escherichia coli Juhl, read-out: MIC
[18] = Escherichia coli, GN2411, pH 7.2, Escherichia coli GN2411-5, read-out: MIC

Structure (SMILES) | MIC (Proteus mirabilis 1287) [µg/mL] | MIC [3] [µg/mL] | MIC (Proteus vulgaris 6897) [µg/mL] | MIC (Serratia marcescens T-55; [10]) [µg/mL] | MIC [4, 11] [µg/mL] | MIC (Proteus rettgeri KY 4289) [µg/mL] | MIC (Proteus morganii KY 4298; [12]) [µg/mL] | antimicrobial activity [7] | MIC [1, 13] [µg/mL] | MIC [8] [µg/mL] | MIC (Escherichia coli NIHJC-2; [14]) [µg/mL] | MIC (Serratia marcescens T-26; [15]) [µg/mL] | MIC [2, 16] [µg/mL] | MIC (Escherichia coli Juhl; [17]) [µg/mL] | MIC [5, 18] [µg/mL] | other results
CO/N=C(\C(=O)N[C@@H]1C(=O)N2C(C(=O)O)=CCC[C@H]12)c1csc(N)n1 [A, (+)-cis-7-[2-(2-amino-4-thiazolyl)-2-syn-methoxyiminoacetamido]-1-azabicyclo[4,2,0]oct-2-en-8-on-2-carboxylic acid] | 0.01 (≈ 0.0274 µM) | ≤ 0.006 | ≤ 0.006 | 0.02 (≈ 0.0547 µM) | 3.12 (≈ 8.54 µM) | ≤ 0.006 | 0.05 (≈ 0.137 µM) | strong antimicrobial activity | – | – | – | – | – | – | – | MIC ([1]; Pseudomonas aeruginosa #1, pH 7.2): 6.25 µg/mL (≈ 17.1 µM); MIC (Escherichia coli NIHJC-2; Escherichia coli NIHJC-2, pH 7.2): 0.02 µg/mL (≈ 0.0547 µM); MIC (Serratia marcescens T-26; Serratia marcescens T-26, pH 7.2): 0.2 µg/mL (≈ 0.547 µM); MIC ([2]; Klebsiella pneumoniae Y-60, pH 7.2): 0.02 µg/mL (≈ 0.0547 µM); MIC (Escherichia coli Juhl; Escherichia coli Juhl, pH 7.2): 0.02 µg/mL (≈ 0.0547 µM); MIC ([5]; Escherichia coli GN2411-5, pH 7.2): 0.01 µg/mL (≈ 0.0274 µM); MIC ([6]; Staphylococcus aureus Smith, pH 7.2): 6.25 µg/mL (≈ 17.1 µM)
CO/N=C(\C(=O)N[C@@H]1C(=O)N2C(C(=O)O)=C[C@@H](C)C[C@H]12)c1csc(N)n1 [B, (-)-cis-7β-[2-(2-amino-4-thiazolyl)-2-syn-methoxyiminoacetamido]-4α-methyl-1-azabicyclo[4,2,0]oct-2-en-8-on-2-carboxylic acid] | ≤ 0.01 | ≤ 0.01 | ≤ 0.01 | 0.05 (≈ 0.132 µM) | 1.56 (≈ 4.11 µM) | ≤ 0.01 | – | strong antimicrobial activity | 25 (≈ 65.9 µM) | 100 (≈ 264 µM) | 0.02 (≈ 0.0527 µM) | 0.4 (≈ 1.05 µM) | 0.02 (≈ 0.0527 µM) | 0.02 (≈ 0.0527 µM) | ≤ 0.01 | MIC (Pseudomonas putida 264; Pseudomonas putida 264, pH 7.2): 0.05 µg/mL (≈ 0.132 µM); MIC (Proteus morganii KY 4298; Proteus morganii KY 4298, pH 7.2): 0.02 µg/mL (≈ 0.0527 µM); MIC ([6]; Staphylococcus aureus, pH 7.2, Staphylococcus aureus Smith, read-out: MIC): 6.25 µg/mL (≈ 16.5 µM)
CO/N=C(\C(=O)N[C@@H]1C(=O)N2C(C(=O)O)=C(COC(C)=O)CS[C@H]12)c1csc(N)n1 [C, reference compound] | 0.02 (≈ 0.0439 µM) | ≤ 0.01 | ≤ 0.01 | – | – | ≤ 0.01 | 0.05 (≈ 0.11 µM) | – | 6.25 (≈ 13.7 µM) | 50 (≈ 110 µM) | 0.1 (≈ 0.22 µM) | 0.78 (≈ 1.71 µM) | 0.05 (≈ 0.11 µM) | 0.05 (≈ 0.11 µM) | 0.05 (≈ 0.11 µM) | MIC (Serratia marcescens T-55; Serratia marcescens, T55, pH 7.2, Serratia marcescens T-55, read-out: MIC): 0.1 µg/mL (≈ 0.22 µM); MIC ([4]; Staphylococcus aureus, 209P, pH 7.2, Staphylococcus aureus 209-P, read-out: MIC): 0.78 µg/mL (≈ 1.71 µM); MIC (Pseudomonas putida 264; Pseudomonas putida, 264, pH 7.2, Pseudomonas putida 264, read-out: MIC): 0.1 µg/mL (≈ 0.22 µM); MIC [9]: 1.56 µg/mL (≈ 3.43 µM); MIC ([6]; Staphylococcus aureus Smith, pH 7.2, read-out: MIC): 1.56 µg/mL (≈ 3.43 µM)
